Patent publication US7151180B2, “Potassium channel modulators” (Bristol-Myers Squibb Company, priority 2003, dated 2006)

Columns and labels:
[1] = test system: cloned mammalian (mSlo or hSlo) BK channels expressed in Xenopus oocytes; test: Assay for BK channel openers: two-electrode voltage clamp of BK-mediated outward current in Xenopus oocytes; format: cell-based; conditions: at 20 μM; percent increase over BK current in controls; voltage step to +140 mV; 5–10 oocytes
Method: The ability of the compounds of the invention to open BK channels and increase whole-cell outward (K^+) BK-mediated currents was assessed under voltage-clamp conditions by determining their ability to increase cloned mammalian (mSlo or hSlo) BK-mediated outward current heterologously expressed in Xenopus oocytes [Butler, A., et al., Science 1993, 261, 221–224; Dworetzky, S. I., et al., Mol. Brain Res. 1994, 27, 189–193; Gribkoff, V. K., et al., Mol. Phannacol. 1996, 50, 206–217]. The two BK constructs employed represent nearly structurally identical homologous proteins, and have proven to be pharmacologically indistinguishable in our tests. To isolate BK current from native (background, non-BK) current, the specific and potent BK channel-blocking toxin iberiotoxin (IBTX) [Galvez, A., et al., J. Biol. Chem. 1990, 265, 11083–11090] was employed at a supramaximal concentration, e.g., 50–100 nanomolar (“nM”). The relative contribution of BK channel-mediated current to total outward current was determined by subtraction of the current remaining in the presence of IBTX (non-BK current) from the current profiles obtained in all other experimental conditions (control, drug, and wash) [Gribkoff, V. K. et al., Mol. Pharmacol. 1996, 50, 206–217]. […] All compounds were tested in 5–10 oocytes and are reported at the indicated concentration of 20 micromolar (“μM”) (or as otherwise indicated); the effect of the selected compounds of the invention on BK current was expressed as the percent of control IBTX-sensitive current at a single transmembrane voltage (+140 mV) and is listed in Table 1.Recordings were accomplished using standard two-electrode voltage clamp techniques [Stuhmer, W., et al., Methods in Enzymology, 1992, 207, 319–339]; voltage-clamp protocols consisted of 500–750 milliseconds (“ms”) duration step depolarizations, from a holding potential of −60 mV, to a final voltage up to +140 mV in 20 mV steps. The experimental media (modified Barth's solution) consisted of millimolar (“mM”): NaCl (88), NaHCO3 (2.4), KCl (1.0), HEPES (10), MgSO4 (0.82), Ca(NO3)2 (0.33), CaCl2 (0.41); pH 7.5.

[2] = test system: rabbit corpus cavernosum tissue; test: Relaxation of rabbit corpus cavernosum strips (phenylephrine-induced force); conditions: Oryctolagus cuniculus, inhibition of phenylephrine (3 μM)-induced force compared to vehicle control, read-out: % Inhibition of force (RCC strips)
Method: The ability of the compounds of the invention to relax rabbit corpus cavernosum tissue as a model for the treatment of erectile dysfunction is described as follows. New Zealand white rabbits (3.4–3.7 kg) were euthanized by sodium pentobarbital (100 mg/kg) overdose. The penis from each animal was rapidly removed and immersed in a cold oxygenated modified Krebs Henseleit bicarbonate buffer. The penis' outer tunica was removed and the corpus cavernosum smooth muscle obtained and cut into strips approximately 3–5 mm long. The strips were suspended in tissue baths containing physiological salt solution (see above), and allowed to equilibrate for at least one hour under resting tension of 1.0 gram. Isometric force was measured as described above. Tissue strips were stimulated with the α-agonist phenylephrine (3 μM) and allowed to reach a steady level of force prior to the addition of test compounds. The results are expressed as the percentage inhibition of phenylephrine-induced force as compared to vehicle control.

[3] = test system: rat small intestine tissue; test: Relaxation of rat small intestine (ileum) strips (nifedipine-sensitive force); conditions: integral of nifedipine-sensitive force, 30 min post-compound
From the text: The ability of the compounds of the invention to relax rat small intestine tissue as a model for the treatment of irritable bowel syndrome is described as follows. Male rats (Harlan, Sprague Dawley, 250–350 g) were sacrificed by decapitation. A portion of small intestine (ileum) was removed and the attached connective tissues and intestinal contents removed. The ileum was cut into segments of ≦1 cm in length. The segments were mounted longitudinally between fixed hooks in organ baths containing warm (37° C.) physiological salt solution (composition in mM: NaCl 118.4,KCl 4.7,KH2PO4 1.2,MgSO4 1.2,CaCl2 1.8,Glucose 10.1, NaHCO3 25; gassed with 95% O2/5% CO2, pH 7.4). A stable tension of ˜1.5 g was maintained in the tissue segments during the equilibration period of 45 minutes. Changes in muscle tension were measured with isometric force transducers (Grass, FT-03C) and recorded using AcqKnowledge data acquisition system (AcqKnowledge for MP100WS, Biopac Systems Inc., Goleta, Calif.). Compound or vehicle was added in the baths for 30 minutes. “Zero” active force was established at the end of the experiment using nifedipine (20 μM). The effects of compounds or vehicle on force was determined by measuring the integral of nifedipine-sensitive force (including resting tone and spontaneous contractions) pre- and 30 min post-compound (or vehicle) addition. Results are expressed as the percentage inhibition of force. DMSO vehicle inhibited force (integral) by −0.6±3.0% (n=25).

SMILES	% MaxiK opening [1] [%]	inhibition [2] [%]	% Inhibition of force (RSI strips) [3] [%]	melting point [°C]
O=C(O)c1ccc(Sc2c(-c3cc(Cl)ccc3O)c3cc(C(F)(F)F)ccc3[nH]c2=O)cc1 [Example 10, 4-[4-(5-Chloro-2-hydroxy-phenyl)-2-oxo-6-trifluoromethyl-1,2-dihydro-quinolin-3-ylsulfanyl]-benzoic acid]	209	29	–	–
O=c1[nH]c2ccc(C(F)(F)F)cc2c(-c2cc(Cl)ccc2O)c1Sc1ccc(O)cc1 [Example 6, 4-(5-Chloro-2-hydroxyphenyl)-3-(4-hydroxyphenylsulfanyl)-6-trifluoromethyl-1H-quinolin-2-one]	307	8	21	180 to 190
Nc1ccc(Sc2c(-c3cc(Cl)ccc3O)c3cc(C(F)(F)F)ccc3[nH]c2=O)cc1 [Example 1, 3-[(4-Aminophenyl)thio]-4-(5-chloro-2-hydroxyphenyl)-6-(trifluoromethyl)-2(1H)-quinolinone]	392	27	10	–
Nc1nnc(Sc2c(-c3cc(Cl)ccc3O)c3cc(C(F)(F)F)ccc3[nH]c2=O)s1 [Example 7, 3-(5-Amino-[1,3,4]thiadiazol-2-ylsulfanyl)-4-(5-chloro-2-hydroxyphenyl)-6-trifluoromethyl-1H-quinolin-2-one]	237	45	40	260 to 270
O=c1[nH]c2ccc(C(F)(F)F)cc2c(-c2cc(Cl)ccc2O)c1SCc1ccc(O)cc1 [Example 8, 4-(5-Chloro-2-hydroxyphenyl)-3-(4-hydroxybenzylsulfanyl)-6-trifluoromethyl-1H-quinolin-2-one]	227	33	–	206 to 208
O=c1[nH]c2ccc(C(F)(F)F)cc2c(-c2cc(Cl)ccc2O)c1Sc1ncccn1 [Example 3, 4-(5-Chloro-2-hydroxy-phenyl)-3-(pyrimidin-2-ylsulfanyl)-6-trifluoromethyl-1H-quinolin-2-one]	144	–	–	302 to 303
O=c1[nH]c2ccc(C(F)(F)F)cc2c(-c2cc(Cl)ccc2O)c1Sc1ccncc1 [Example 4, 4-(5-Chloro-2-hydroxy-phenyl)-3-(pyridin-4-ylsulfanyl)-6-trifluoromethyl-1H-quinolin-2-one]	206	36	17	257 to 260
O=c1[nH]c2ccc(C(F)(F)F)cc2c(-c2cc(Cl)ccc2O)c1Sc1ccccc1O [Example 9, 4-(5-Chloro-2-hydroxyphenyl)-3-(2-hydroxyphenylsulfanyl)-6-trifluoromethyl-1H-quinolin-2-one]	145	–	–	290 to 292
COc1ccc(Cl)cc1-c1c(Sc2ccc(C(=O)O)cc2)c(=O)[nH]c2ccc(C(F)(F)F)cc12 [Example 11, 4-[4-(5-Chloro-2-methoxy-phenyl)-2-oxo-6-trifluoromethyl-1,2-dihydro-quinolin-3-ylsulfanyl]-benzoic acid]	177	–	–	–
Cn1c(=O)c(Sc2ccc(N)cc2)c(-c2cc(Cl)ccc2O)c2cc(C(F)(F)F)ccc21 [Example 2, 3-[(4-Aminophenyl)thio]-4-(5-chloro-2-hydroxyphenyl)-1-methyl-6-(trifluoromethyl)-2(1H)-quinolinone]	144	7	–	–
Cn1cnnc1Sc1c(-c2cc(Cl)ccc2O)c2cc(C(F)(F)F)ccc2[nH]c1=O [Example 5, 4-(5-Chloro-2-hydroxy-phenyl)-3-(4-methyl-4H-[1,2,4]triazol-3-ylsulfanyl)-6-trifluoromethyl-4a,8a-dihydro-1H-quinolin-2-one]	167	35	–	–
